melting point [°C] | Structure (SMILES)
72 to 90 | CC(=O)OC1CSC(Oc2cc(-c3cncnc3)cnc2Cl)C(OC(C)=O)C1OC(C)=O (stereo unspecified)
58 to 61 | CC(C)(C)C1=CC(O)(C(F)(F)F)C(=O)C(C(C)(C)C)=C1 (stereo unspecified)
70 | Cc1ccc(OCC=C(Cl)Cl)c(Cl)c1O
116 to 122 | S=C(NCCCC1(Cl)CC=CS1)Nc1ccccn1 (stereo unspecified)
120 to 121 | CCOC(=O)c1cn(Cc2ccccc2)nc1OCc1ccc(OCc2nc(-c3ccco3)oc2C)c(C)c1
156 | O=C(O)CCn1nc(-c2c(-c3ccccc3)nn3ccccc23)ccc1=O
91 to 93 | COC(=O)c1c(C=O)cccc1Oc1nc(OC)cc(OC)n1
174 to 175 | Cc1cnc(NN)nc1N
166 to 168 | CC(C)(C)OC(=O)N1C(=O)O[C@@H](c2ccncc2)[C@H]1Cc1ccc(C(F)(F)F)cc1 (racemic)
196 | OC1CSC(Oc2ccc(-c3ccncc3)nc2F)C(O)C1O (stereo unspecified)
177 to 179 | CCOC(=O)c1cn(C2CC2)c2c(F)c(C)c(F)cc2c1=O
93 to 116 | CCn1c(C)c(C2(N(c3ccccc3)c3ccc(NC(C)=O)cc3)OC(=O)c3ccccc32)c2ccccc21 (stereo unspecified)
112 to 115 | COc1nccc2c1ccn2-c1ccc(C(F)(F)F)cc1Cl
148 to 151 | COc1ccc(/C=C2/c3cc(OC)c(OC)cc3CCN2C(=O)C2CC2)cc1OC
53 to 54 | CCCCCCCCCCCCc1cc(C=O)on1
148 to 149 | COc1ccc(-n2nc(Sc3ccc(C)cc3)c(C)c(C#N)c2=O)cc1
143 to 144 | COC(=O)c1ccc(NC(=O)C(N)c2ccc3c(c2)C(C)(C)CCC3(C)C)n1C (stereo unspecified)
187 | COc1ccc(-c2ccnc(-c3cn(C)c(=O)n3-c3ccc(C(C)(C)C#N)cc3)c2)cn1
164 | O=C1CCC(c2ccccc2)(c2ccccc2)C(C[N+](=O)[O-])C1 (racemic)
328 to 329 | O=C1C(O)=C(c2ccc3ccccc3c2)C(=O)C(O)=C1c1ccc2ccccc2c1
196 to 208 | Cc1ccc2cccc(OCc3c(Cl)ccc(N(C)C(=O)CNC(=O)C=Cc4ccc(-c5nnn[nH]5)cc4)c3Cl)c2n1
65 | CCCCC(=O)Nc1cccc([N+](=O)[O-])c1
157 to 158 | CN(C)CCNC(=O)c1nnc(-c2ccccc2)cc1-c1cccc([N+](=O)[O-])c1
192 to 194 | CN1CCC(CCCC2CCN(CC(=O)N3c4ccccc4C(=O)Nc4cccnc43)CC2)CC1

melting point [°C] | Structure (SMILES)
190 to 191 | CNc1c(NCCCCc2ncc(Br)cc2C)c(=O)c1=O
165 to 166 | CN(CCc1ccc(NS(C)(=O)=O)cc1)Cc1ccc2cc(NS(C)(=O)=O)ccc2n1
118 | C1=CCC2=C3C(=NC2=C1)SCCC3CNCc1ccccc1 (stereo unspecified)
153 | C=C(C)C(=O)OC1=CC(O)(C(C)=O)C(C(=O)O)C=C1 (stereo unspecified)
291 to 294 | O=C1NC(=O)C2(CCN(Cc3ccccc3)CC2)O1
205 to 208 | CCOC(=O)NNC(=O)Nc1ccc(C(F)(F)F)cc1
179 | Cc1ccnc(N=C2SC[C@@H]3Cc4ccccc4CN23)n1
229 to 230 | O=C(O)c1cnn(-c2nc(-c3cccc(C(F)(F)F)c3)cs2)c1
116 to 118 | Nc1[nH]nc(-c2ccncc2)c1-c1ccc(F)cc1
155 to 159 | COC(=O)c1c(N)ncn1C1c2ccccc2CC2CCCCC21 (stereo unspecified)
149 to 159 | O=C(O)c1nn(-c2c(Cl)cc(C(F)(F)F)cc2Cl)cc1OC(F)(F)C(F)Cl (racemic)
131 to 133 | c1cnc2ccc(Cn3nnc4ccc(-c5ccc6c(c5)CCO6)nc43)cc2c1
135 to 138 | CC(Oc1cnn(-c2ccc(Cl)cc2)c(=O)c1Cl)c1ccc(Cl)cc1 (stereo unspecified)
277 | CNc1nc(-c2ccccc2)c(-c2nc(N)nc(Nc3cccc([N+](=O)[O-])c3)n2)s1
206 to 207 | O=C(O)COc1ccc(C2=CC(=O)CCC2C2CCCC2)c(Cl)c1Cl (stereo unspecified)
88 to 96 | COc1cc(C2CCN(CCO)CC2O)ccc1Nc1ncc2ccc(-c3ccccc3OC)n2n1 (stereo unspecified)
118 to 119 | O=C1N[C@H](Cc2cccc(OC(F)(F)C(F)F)c2)[C@H](c2ccnc(F)c2)O1 (racemic)
199 to 201 | CON1C(=O)CC2(CCN(C(=O)c3cccnc3)CC2)C1=O
165 | CCN(CC)CCSC1=C(C#N)C(c2ccccc2)(c2cccs2)C(=O)N1 (stereo unspecified)
197 to 198 | O=C(O)C1=CC2C(=O)NC(=O)C2(CCO)C=C1 (stereo unspecified)
227 to 229 | COc1ccc2c(c1)c1c(n2C)CCC(Cc2nc[nH]c2C)C1=O (stereo unspecified)
85 | COc1ccc2c(c1)Sc1c(cc(OC)c(O)c1Br)N2C(=O)OC(C)OC(=O)C(C)(C)C (stereo unspecified)
180 | Cc1c(SCCN2CCc3ccccc3C2)ccnc1CSc1nc2ncccc2[nH]1
242 to 244 | CCOC(=O)c1cc2c3n(ccc-2n1)CC(C(OCC)OCC)=N3

melting point [°C] | Structure (SMILES)
148 to 149 | CNC(=S)C1=CC(CF)(CF)Oc2ccc(C(F)(F)C(F)(F)F)cc21
157 to 158 | CCC(C(C)=CC(CNC(=O)c1c[nH]cn1)=NO)[N+](=O)[O-] (stereo unspecified)
135 to 136 | CCCCC(=N)Nc1ccccc1N1CCOCC1
122 to 127 | CN(C)Cc1ccc(CSCCNC2=NS(=O)(=O)N=C2N2CCOCC2)o1
145 to 146 | CCOC(=O)C(NC(=O)CCl)c1cscn1 (stereo unspecified)
121 to 124 | COC(=O)c1cc2nc(C)oc2cc1C(=O)OC
77.7 to 79.4 | COCCCCCCCCCCCC(=O)NCc1ccccc1
160 to 162 | CCCn1c(COC)nc2c(N)nc3ccc(OCCN4CCCCC4)cc3c21
152 | Cc1cccc(NC(=O)NC2CN(C(=O)C(C)(C)C)c3ccccc3N(CC(C)C)C2=O)c1 (stereo unspecified)
189 to 191 | N#Cc1c(Cc2ccccc2)nn(C2CCCC2)c1NC(=O)c1ccncc1
62 to 64 | Cc1cc(C)c(N)cn1
50.8 | Cn1c(C(F)(F)F)cc(=O)n(-c2cc(Oc3ccccc3OCc3ccccc3)c(Cl)cc2F)c1=O
115 to 116 | OCc1cn(-c2ccc(Cl)cc2)cn1
218 to 220 | O=C1NCC(c2ccccc2)CCC1Br (stereo unspecified)
185 | COc1cccc2c1CCCC2=NNc1nc(-c2cccc([N+](=O)[O-])c2)cs1
206 | c1ccc2c(c1)C[C@H]1CSC(=Nc3cccc4ccncc34)N1C2
160 to 162 | CC(C)(CNc1ccc(C2=NNC(=O)CC2)cc1)NCC(O)COc1cc(Cl)ccc1C#N (stereo unspecified)
51.5 to 53 | CCCCCCCCCCCCOc1ccc([N+](=O)[O-])cc1
194 to 196 | Cc1c(F)c([N+](=O)[O-])cc2oc(=O)[nH]c12
124 to 126 | CCOC(=O)N[C@@H]1CCc2ccccc2[C@H]1Cl (relative stereo)
134 to 135 | O=C(Nc1cc(C(F)(F)F)ccc1N1CCCC1)c1ccncc1
225 to 227 | Cc1ccnc2c1C(=O)c1cc([N+](=O)[O-])ccc1-2
147 to 148 | COc1ccc(/C=C(\C#N)c2ccc3ccccc3c2)cc1OC1CCCC1
89 to 90 | C1=Cc2ccccc2NC1

melting point [°C] | Structure (SMILES)
> 320 | Nc1nc2c(sc(=O)n2Cc2ccccc2)c(=O)[nH]1
107 to 115 | Cc1[nH]c(C=O)c(C)c1C(=O)NCC1CCCCN1 (stereo unspecified)
177 to 179 | CNC(=O)C(Cc1ccc2ccccc2c1)NC(=O)OC(C)(C)C (stereo unspecified)
68 | CC(C)Oc1ccc(F)cc1OCCN1C(=O)c2ccccc2C1=O
246 to 248 | CC1(C)CC(=O)C2=C(C1)NC1=C(C(=O)CC(C)(C)C1)C2c1ccc(Cl)c(Oc2ccccc2)c1
86 to 90 | CCC1(CC(=O)OC)OCC(O)c2c1[nH]c1ccccc21 (stereo unspecified)
158 to 160 | O=C1c2ccccc2C(=O)N1Cc1ccc(/C=C/C(c2cc(Cl)c(Cl)c(Cl)c2)C(F)(F)F)c2ccccc12 (stereo unspecified)
77 to 78 | CC(C)c1nc(CN)n(C)c1Sc1cccc([N+](=O)[O-])c1
188 to 189 | Cc1cc(N2CCN(c3nc(-c4ccccc4)nc(C)c3C)CC2)cc(C)c1O
53 to 55 | COc1cccc(OCCCSCCC(=O)O)c1
139 to 140 | O=C(Nc1ccc(OC(F)(F)F)cc1)N1CCOC(c2ccc(Br)s2)=N1
145 to 147 | COc1ccc(NCCCCCNC(C)=O)c2c1C(=O)c1ccccc1C2=O
201 to 203 | CC(C)(Cn1c(CO)nc2c(N)nc3ccccc3c21)C(N)=O
176 to 177 | CS(=O)c1ccc(-c2coc3ccc(-c4nnc(SCc5cccc(C(F)(F)F)c5)o4)cc23)cc1 (stereo unspecified)
215 | CCOC(=O)C1=C(C)NC(C)=C(C(=O)OCC)C1c1ccc(OC(C)(C)C(=O)OCC)cc1
167 to 169 | O=C1Nc2ccccc2N(C(=O)CCN2CCCC2)c2ccc(Cl)cc21
154 to 156 | COc1ccc(/C(=C\C=C\C(=O)O)C2CC2)cc1
150 to 151 | C=CCC1(C)OC(=S)Nc2ccc(-c3cccc(Cl)c3)cc21 (stereo unspecified)
105 | CON=C(C)C(=NOC)C(C)=NOCc1ccccc1CON=CC(=O)OC
226 to 228 | CC(=O)c1ccc(OCCCCCOc2ccc3c(=O)cc(C(=O)O)oc3c2)cc1O
118 to 120 | COC(=O)C(Oc1nc(OC)cc(OC)n1)C(C)(N=[N+]=[N-])c1ccccc1 (stereo unspecified)
130 | CCc1oc2ccc([N+](=O)[O-])cc2c1C(=O)c1ccc(OC)cc1

Structure (SMILES) | melting point [°C]
N=C(O[C@@H]1CCCC=C1Cl)C(Cl)(Cl)Cl | 78 to 79
Cc1ncc2n1-c1ccccc1N(c1ccccc1)C(=O)C2 | 217 to 220
CC(C)CC(=O)Nc1cccc(-c2ccnc3c(Br)cnn23)c1 | 132 to 134
C#CCNC(=O)c1ncn2c1CN(C)C(=O)c1cc(F)ccc1-2 | 205 to 206
C[C@@H]1C(=O)C[C@H]2C[C@@H]1OO[C@@]2(C)/C=C\c1ccc(Br)c2ccccc12 | 167
CCCc1cc2c(s1)[C@@H](O)[C@H]1C[C@]2(O)C(=O)O1 | 120 to 125
CNC(=O)ON(Cc1ccc(OCc2ccccc2)cc1)C(C)=O | 101 to 102
